In ChEMBL document CHEMBL2311529, “Structure-activity relationships in 1,4-benzodioxan-related compounds. 11. (1) reversed enantioselectivity of 1,4-dioxane derivatives in α1-adrenergic and 5-HT1A receptor binding sites recognition” (J Med Chem, 2013):

Key:
[1] = target: T1, 5-hydroxytryptamine receptor 1A (Homo sapiens, UniProt P08908); assay: Displacement of [3H]8-OH-DPAT from human recombinant 5HT1A receptor expressed in HeLa cell membranes after 30 mins
T1 sequence (P08908 whole entry): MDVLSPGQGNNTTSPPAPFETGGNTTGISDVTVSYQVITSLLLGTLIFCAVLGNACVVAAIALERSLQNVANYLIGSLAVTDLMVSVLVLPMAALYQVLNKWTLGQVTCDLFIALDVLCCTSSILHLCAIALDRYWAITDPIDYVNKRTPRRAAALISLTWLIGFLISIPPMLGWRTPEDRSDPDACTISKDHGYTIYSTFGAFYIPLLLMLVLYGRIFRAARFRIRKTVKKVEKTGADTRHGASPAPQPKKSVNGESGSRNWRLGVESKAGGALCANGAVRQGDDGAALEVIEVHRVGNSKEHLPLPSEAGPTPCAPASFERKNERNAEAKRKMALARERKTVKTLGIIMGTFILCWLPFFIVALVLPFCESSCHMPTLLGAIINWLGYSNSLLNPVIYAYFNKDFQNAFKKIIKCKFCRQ

[2] = target: T2, Alpha-1A adrenergic receptor (Homo sapiens, UniProt P35348); assay: biochemical
T2 sequence (P35348 whole entry): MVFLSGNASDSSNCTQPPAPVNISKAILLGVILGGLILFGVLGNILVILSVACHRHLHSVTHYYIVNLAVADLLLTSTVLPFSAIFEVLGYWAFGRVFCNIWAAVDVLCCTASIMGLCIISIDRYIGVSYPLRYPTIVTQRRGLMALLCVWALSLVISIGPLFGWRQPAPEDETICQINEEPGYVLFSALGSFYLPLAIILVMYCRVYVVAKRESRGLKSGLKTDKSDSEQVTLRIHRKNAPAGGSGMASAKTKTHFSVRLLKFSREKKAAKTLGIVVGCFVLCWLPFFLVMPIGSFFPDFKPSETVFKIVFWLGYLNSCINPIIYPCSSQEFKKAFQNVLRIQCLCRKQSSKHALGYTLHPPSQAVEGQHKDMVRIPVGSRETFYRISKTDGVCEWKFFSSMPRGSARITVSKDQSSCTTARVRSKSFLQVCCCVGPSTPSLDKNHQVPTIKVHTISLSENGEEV
Description: Displacement of [3H]prazosin from human recombinant alpha1A adrenergic receptor expressed in CHO cell membranes after 30 mins

PC-3 [3] = assay: Cytotoxicity against human PC3 cells transfected with sialpha1D-AR after 48 hrs by sulforhodamine B assay; format: functional; conditions: PC-3, 48 h; for CC50: read-out: LC50 (the source's name)
[4] = target: T3, 5-hydroxytryptamine receptor 1A (Homo sapiens) (UniProt P08908); conditions: HeLa
T3 sequence (whole entry): T1 sequence (P08908 whole entry)
Description: Agonist activity at human 5HT1A receptor expressed in HeLa cell membranes by [35S]GTPgammaS binding assay

[5] = target: T4, Alpha-1B adrenergic receptor (Homo sapiens, UniProt P35368); assay: Displacement of [3H]prazosin from human recombinant alpha1B adrenergic receptor expressed in CHO cell membranes after 30 mins
T4 sequence (P35368 whole entry): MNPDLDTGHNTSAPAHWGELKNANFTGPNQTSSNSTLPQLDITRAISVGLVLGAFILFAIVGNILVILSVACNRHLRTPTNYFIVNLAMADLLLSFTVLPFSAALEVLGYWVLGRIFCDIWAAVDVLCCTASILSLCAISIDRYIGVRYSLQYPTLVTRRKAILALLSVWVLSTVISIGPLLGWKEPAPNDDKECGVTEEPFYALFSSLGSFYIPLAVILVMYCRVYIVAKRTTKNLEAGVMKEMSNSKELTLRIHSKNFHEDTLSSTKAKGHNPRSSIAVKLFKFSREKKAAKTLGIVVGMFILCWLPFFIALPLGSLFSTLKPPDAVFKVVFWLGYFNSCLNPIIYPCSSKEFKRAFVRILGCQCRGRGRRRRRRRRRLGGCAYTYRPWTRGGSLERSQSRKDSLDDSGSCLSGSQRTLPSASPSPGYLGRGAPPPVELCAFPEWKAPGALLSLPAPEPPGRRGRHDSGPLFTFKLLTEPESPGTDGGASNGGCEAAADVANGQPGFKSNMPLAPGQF

PC-3 [6] = assay: Cytotoxicity against human PC3 cells transfected with sialpha1D-AR assessed as concentration required for tumor growth inhibition after 48 hrs by sulforhodamine B assay; format: functional; conditions: PC-3, 48 h
PC-3 [7] = assay: Cytotoxicity against human PC3 cells after 48 hrs by sulforhodamine B assay; format: functional; conditions: PC-3, 48 h
PC-3 [8] = assay: Cytotoxicity against human PC3 cells transfected with siGLO after 48 hrs by sulforhodamine B assay; format: functional; conditions: PC-3, 48 h; for CC50: read-out: LC50 (the source's name)
PC-3 [9] = assay: Cytotoxicity against human PC3 cells transfected with siGLO assessed as concentration required for tumor growth inhibition after 48 hrs by sulforhodamine B assay; format: functional; conditions: PC-3, 48 h
PC-3 [10] = assay: Cytotoxicity against human PC3 cells assessed as concentration required for tumor growth inhibition after 48 hrs by sulforhodamine B assay; format: functional; conditions: PC-3, 48 h
[11] = target: T5, Alpha-1D adrenergic receptor (Homo sapiens, UniProt P25100); assay: Displacement of [3H]prazosin from human recombinant alpha1D adrenergic receptor expressed in CHO cell membranes after 30 mins
T5 sequence (P25100 whole entry): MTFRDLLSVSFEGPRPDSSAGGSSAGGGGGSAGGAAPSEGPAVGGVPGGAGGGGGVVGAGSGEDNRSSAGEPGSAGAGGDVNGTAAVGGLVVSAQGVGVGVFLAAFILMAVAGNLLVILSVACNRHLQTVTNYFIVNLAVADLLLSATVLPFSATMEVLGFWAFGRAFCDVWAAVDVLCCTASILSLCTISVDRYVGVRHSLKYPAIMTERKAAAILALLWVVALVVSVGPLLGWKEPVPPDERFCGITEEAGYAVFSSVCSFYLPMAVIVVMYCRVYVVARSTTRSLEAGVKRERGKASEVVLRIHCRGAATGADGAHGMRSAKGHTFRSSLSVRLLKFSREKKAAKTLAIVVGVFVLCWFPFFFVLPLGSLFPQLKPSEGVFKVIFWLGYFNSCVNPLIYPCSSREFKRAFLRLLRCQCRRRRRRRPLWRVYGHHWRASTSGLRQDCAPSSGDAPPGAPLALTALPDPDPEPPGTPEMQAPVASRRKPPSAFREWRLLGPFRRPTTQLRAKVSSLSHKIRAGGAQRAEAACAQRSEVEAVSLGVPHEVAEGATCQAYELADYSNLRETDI

[12] = target: T3, 5-hydroxytryptamine receptor 1A (Homo sapiens); conditions: HeLa; remark: listed apart in the source
Description: Partial agonist activity at human 5HT1A receptor expressed in HeLa cell membranes after 20 mins by [35S]GTPgammaS binding assay

PC-3 [13] = assay: Ratio of GI50 for human PC3 cells transfected with sialpha1D-AR to GI50 for human PC3 cells; format: functional
PC-3 [14] = assay: Ratio of concentration required for tumor growth inhibition of human PC3 cells transfected with sialpha1D-AR to concentration required for tumor growth inhibition of human PC3 cells; format: functional
PC-3 [15] = assay: Ratio of LC50 for human PC3 cells transfected with sialpha1D-AR to LC50 for human PC3 cells; format: functional

Row | Structure (SMILES) | Ki [1] | Ki [2] | GI50 (PC-3 [3]) | CC50 (PC-3 [3]) | pD2 [4] | Ki [5] | TGI (PC-3 [6]) | GI50 (PC-3 [7]) | LC50 (PC-3 [7]) | GI50 (PC-3 [8]) | CC50 (PC-3 [8]) | TGI (PC-3 [9]) | TGI (PC-3 [10]) | Ki [11] | pD2 [12] | RatioGI50 (PC-3 [13]) | Ratio (PC-3 [14]) | RatioLC50 (PC-3 [15])
1 | c1ccc(OCCNCC2COCC(c3ccccc3)(c3ccccc3)O2)cc1 (racemic) | 0.589 nM | 170 nM | 23600 nM | 39800 nM | 9.11 | 120 nM | 25000 nM | 3000 nM | 8000 nM | 4100 nM | 10700 nM | 7100 nM | 6000 nM | 3.63 nM | – | – | – | –
2 | c1ccc(OCCNC[C@H]2COCC(c3ccccc3)(c3ccccc3)O2)cc1 | 0.398 nM | 437 nM | 20700 nM | > 300000 nM | – | 170 nM | 49200 nM | 19100 nM | > 300000 nM | 22800 nM | > 300000 nM | 41700 nM | 43000 nM | 83.2 nM | 9.19 | – | – | –
3 | COc1ccccc1N1CCN(CCN2C(=O)CC3(CCCC3)CC2=O)CC1 | – | – | – | – | 9.27 | – | – | – | – | – | – | – | – | – | – | – | – | –
4 | COc1cccc(OC)c1OCCNC[C@@H]1COCC(c2ccccc2)(c2ccccc2)O1 | 44.7 nM | 166 nM | – | – | 5.88 | 195 nM | – | 32000 nM | 65000 nM | – | – | – | 58000 nM | 56.2 nM | – | – | – | –
5 | COc1ccccc1OCCNC[C@H]1COCC(c2ccccc2)(c2ccccc2)O1 | 0.309 nM | 257 nM | – | – | – | 417 nM | – | 21000 nM | – | – | – | – | 34000 nM | 25.1 nM | 9.19 | – | – | –
6 | COc1cccc(OC)c1OCCNCC1COCC(c2ccccc2)(c2ccccc2)O1 (racemic) | 1.41 nM | 339 nM | – | – | 8.28 | 324 nM | – | 14000 nM | 45000 nM | – | – | – | 32000 nM | 66.1 nM | – | – | – | –
7 | COc1cccc(OC)c1OCCNC[C@H]1COCC(c2ccccc2)(c2ccccc2)O1 | 0.55 nM | > 1000 nM | – | – | 8.3 | 1660 nM | – | 16000 nM | 37000 nM | – | – | – | 30000 nM | 724 nM | – | – | – | –
8 | COc1cccc(OC)c1OCCNC[C@H]1COc2ccccc2O1 | 2.45 nM | – | – | – | – | – | – | – | – | – | – | – | – | – | – | – | – | –
9 | c1ccc(OCCNC[C@@H]2COCC(c3ccccc3)(c3ccccc3)O2)cc1 | 1.48 nM | 129 nM | 10200 nM | 52100 nM | – | 52.5 nM | 27100 nM | 600 nM | 4000 nM | 900 nM | 5800 nM | 2500 nM | 2100 nM | 3.24 nM | 7.82 | 17 | 12.9 | 13
10 | COc1ccccc1OCCNCC1COCC(c2ccccc2)(c2ccccc2)O1 (racemic) | 0.661 nM | 27.5 nM | – | – | 9.4 | 56.2 nM | – | 9000 nM | – | – | – | – | 16000 nM | 1.15 nM | – | – | – | –
11 | COc1cccc(OC)c1OCCNC[C@@H]1COc2ccccc2O1 | 40.7 nM | – | – | – | – | – | – | – | – | – | – | – | – | – | – | – | – | –
12 | COc1cccc(OC)c1OCCNCC1COc2ccccc2O1 (stereo unspecified) | – | – | – | – | – | – | – | 64600 nM | – | – | – | – | – | – | – | – | – | –
13 | COc1ccccc1OCCNC[C@@H]1COCC(c2ccccc2)(c2ccccc2)O1 | 0.603 nM | 16.6 nM | – | – | – | 21.9 nM | – | 4000 nM | – | – | – | – | 9000 nM | 1.38 nM | 7.7 | – | – | –
14 | NCCc1c[nH]c2ccc(O)cc12 | – | – | – | – | 7.3 | – | – | – | – | – | – | – | – | – | – | – | – | –
15 | COc1cc2nc(N3CCN(C(=O)C4COc5ccccc5O4)CC3)nc(N)c2cc1OC (stereo unspecified) [DOXAZOSIN] | – | – | – | – | – | – | – | 26900 nM | – | – | – | – | – | – | – | – | – | –
